Laboratory results from PubChem BioAssay (NCI).
Several values for one entry are separate records, joined by “and”; a condition that tells them apart may be missing. Equal entries are not always repeated.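 Exposure lasted 48 hours, with cells grown in 96-well plates and compounds tested at five concentrations. Here, GI50 denotes the concentration required for 50% inhibition of growth. TGI: total growth inhibition.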

Key:
Test in all cases: NCI tumour cell line growth inhibition, 48 h
[1] = test system: A498 renal
[2] = test system: ACHN renal
[3] = test system: HCT-116 colon
[4] = test system: HL-60(TB) leukemia
[5] = test system: MCF7 breast
[6] = test system: MDA-MB-231 breast
[7] = test system: SK-MEL-2 melanoma
[8] = test system: SK-OV-3 ovarian
[9] = test system: SN12C renal
[10] = test system: SW-620 colon

COc1ccc(OC)c2c(/C=C/c3ccc(N(C)C)cc3)ccnc12
TGI [1]: > 10 µM
TGI [2]: > 10 µM
TGI [3]: 8.11 µM
TGI [4]: 3.86 µM
TGI [5]: > 10 µM
TGI [6]: > 10 µM
TGI [7]: > 10 µM
TGI [8]: > 10 µM
TGI [9]: > 10 µM
TGI [10]: > 10 µM

COc1cc2c(c(OC)n1)[C@]1(O)[C@H](O)[C@H](CN(C)C)[C@@H](c3ccccc3)[C@]1(c1ccc(C#N)cc1)O2
GI50 [1]: 0.0192 µM and 0.0201 µM
TGI [1]: 0.0518 µM and 0.0773 µM
GI50 [2]: < 0.0116 µM and 0.0117 µM
TGI [2]: 0.148 µM and 0.558 µM
GI50 [3]: < 0.01 µM
TGI [3]: 2.65 µM and 1.7 µM
GI50 [4]: < 0.01 µM
TGI [4]: 0.921 µM and 0.213 µM
GI50 [5]: < 0.01 µM
TGI [5]: 0.721 µM and 3.09 µM
GI50 [6]: 0.0336 µM and 0.0242 µM
TGI [6]: 1.72 µM and 1.48 µM
GI50 [7]: 0.0319 µM and 0.034 µM
TGI [7]: 0.318 µM and 0.369 µM
GI50 [8]: 0.0481 µM and 0.0284 µM
TGI [8]: 7.95 µM and 2.1 µM
GI50 [9]: 0.0156 µM and < 0.0132 µM
TGI [9]: 1.94 µM and 1.61 µM
GI50 [10]: 0.0124 µM and < 0.01 µM
TGI [10]: 3.37 µM and 10.4 µM

CCc1ccccc1NC(=O)c1sc2nc3c(cc2c1N)C(=O)CCC3
GI50 [1]: 0.22 µM
TGI [1]: 5.52 µM
GI50 [2]: 1.17 µM
TGI [2]: > 100 µM
GI50 [3]: 0.512 µM
TGI [3]: > 100 µM
GI50 [4]: 0.326 µM
TGI [4]: 43.7 µM
GI50 [5]: 0.328 µM
TGI [5]: > 100 µM
GI50 [6]: 1.49 µM
TGI [6]: > 100 µM
GI50 [8]: 0.537 µM
TGI [8]: 75.7 µM
GI50 [9]: 0.729 µM
TGI [9]: > 100 µM
GI50 [10]: 0.329 µM
TGI [10]: > 100 µM

O=c1[nH]cnc2cccc(Cl)c12
TGI [1]: > 100 µM
TGI [2]: > 100 µM
TGI [3]: > 100 µM
TGI [4]: > 100 µM
TGI [5]: > 100 µM
TGI [6]: > 100 µM
TGI [7]: > 100 µM
TGI [8]: > 100 µM
TGI [9]: > 100 µM
TGI [10]: > 100 µM

O=C(/C=C/c1cc(CN2CCOCC2)c(O)c2ncccc12)c1cc(CN2CCOCC2)c(O)c2ncccc12
GI50 [1]: 0.246 µM
TGI [1]: 18 µM
GI50 [2]: 0.0329 µM
TGI [2]: > 100 µM
GI50 [3]: 0.0245 µM
TGI [3]: > 100 µM
GI50 [4]: 0.0309 µM
GI50 [5]: < 0.0175 µM
TGI [5]: > 100 µM
GI50 [6]: 0.145 µM
TGI [6]: > 100 µM
GI50 [7]: 0.0637 µM
TGI [7]: 4.99 µM
GI50 [8]: 0.0348 µM
TGI [8]: 0.357 µM
GI50 [9]: 0.0673 µM
TGI [9]: > 100 µM
GI50 [10]: < 0.0186 µM
TGI [10]: > 100 µM

NC(CS/C(Cl)=C/Cl)C(=O)O (configuration not stated)
GI50 [1]: 8.7 µM
TGI [1]: 33.8 µM
GI50 [2]: 78.9 µM
TGI [2]: > 100 µM
GI50 [3]: 34.6 µM
TGI [3]: > 100 µM
GI50 [4]: 51.7 µM
TGI [4]: > 100 µM
GI50 [5]: 4.03 µM
TGI [5]: > 100 µM
GI50 [6]: > 100 µM
TGI [6]: > 100 µM
GI50 [7]: 22.2 µM
TGI [7]: > 100 µM
GI50 [8]: > 100 µM
TGI [8]: > 100 µM
GI50 [9]: 43.3 µM
TGI [9]: > 100 µM
GI50 [10]: 39.8 µM
TGI [10]: > 100 µM

O=C(CSC(c1ccccc1)c1ccccc1)N/N=C/c1ccc(Cl)cc1Cl
GI50 [1]: 25.6 µM
TGI [1]: 52.1 µM
GI50 [2]: 26.6 µM
TGI [2]: 66.3 µM
GI50 [3]: 18.5 µM
TGI [3]: 44.4 µM
GI50 [4]: 24.4 µM
TGI [4]: 55.1 µM
GI50 [5]: 7.82 µM
TGI [5]: 29.2 µM
GI50 [6]: 22.5 µM
TGI [6]: > 100 µM
GI50 [7]: 18.4 µM
TGI [7]: 55.8 µM
GI50 [9]: 15.7 µM
TGI [9]: 29.9 µM
GI50 [10]: 42 µM
TGI [10]: > 100 µM

Cc1cc[c-]cc1.Fc1c[c-]c(-c2ccccn2)c(F)c1.[Pt+2].c1ccc(P(C[PH+](c2ccccc2)c2ccccc2)c2ccccc2)cc1
GI50 [1]: 2.04 µM
TGI [1]: 6.11 µM
GI50 [2]: 2.89 µM
TGI [2]: 9.84 µM
GI50 [3]: 2.65 µM
TGI [3]: 11.2 µM
GI50 [4]: 2.36 µM
TGI [4]: 6.88 µM
GI50 [5]: 2.33 µM
TGI [5]: 7.83 µM
GI50 [6]: 2.6 µM
TGI [6]: 8.47 µM
GI50 [7]: 2.36 µM
TGI [7]: 6.61 µM
GI50 [8]: 2.77 µM
TGI [8]: 7.79 µM
GI50 [9]: 2.4 µM
TGI [9]: 10.1 µM
GI50 [10]: 2.83 µM
TGI [10]: 12.4 µM

Nc1nc(SN=Nc2ccc(S(N)(=O)=O)cc2)c2[nH]cnc2n1
GI50 [1]: 1.35 µM
TGI [1]: 7.47 µM
GI50 [2]: 1.6 µM
TGI [2]: > 100 µM
GI50 [3]: 0.374 µM
TGI [3]: 15.1 µM
GI50 [4]: 2.18 µM
TGI [4]: > 53.6 µM
GI50 [5]: 0.289 µM
TGI [5]: > 100 µM
GI50 [6]: 0.722 µM
TGI [6]: > 100 µM
GI50 [7]: 1.24 µM
TGI [7]: > 100 µM
GI50 [8]: 0.39 µM
TGI [8]: 13.6 µM
GI50 [9]: 0.698 µM
TGI [9]: > 100 µM
GI50 [10]: 0.659 µM
TGI [10]: > 100 µM

O=C(Nc1ccc(-n2cc(-c3ccncc3)c(-c3ccc(Cl)c(O)c3)n2)cc1)Nc1ccc(Cl)c(C(F)(F)F)c1
GI50 [1]: 1.63 µM
TGI [1]: 9.29 µM
GI50 [2]: 1.78 µM
TGI [2]: 4.94 µM
GI50 [3]: 1.29 µM
TGI [3]: 2.72 µM
GI50 [4]: 2.42 µM
TGI [4]: 7.46 µM
GI50 [5]: 2.12 µM
TGI [5]: 5.65 µM
GI50 [6]: 1.66 µM
TGI [6]: 3.31 µM
GI50 [7]: 1.7 µM
TGI [7]: 3.27 µM
GI50 [8]: 2.02 µM
TGI [8]: 4.69 µM
GI50 [9]: 1.59 µM
TGI [9]: 3.86 µM
GI50 [10]: 2.48 µM
TGI [10]: 5.04 µM

COc1ccc2c(O)cc3c(c2c1)[C@H](CCl)CN3C(=O)c1cc2cc(NC(=O)CCN3CCOCC3)ccc2[se]1
GI50 [1]: < 0.001 µM
TGI [1]: < 0.001 µM
GI50 [2]: < 0.001 µM
TGI [2]: < 0.001 µM
GI50 [3]: < 0.001 µM
TGI [3]: > 3.25 µM
GI50 [4]: 0.00142 µM
TGI [4]: > 10 µM
GI50 [5]: < 0.001 µM
TGI [5]: 1.39 µM
GI50 [6]: < 0.001 µM
TGI [6]: 0.105 µM
GI50 [7]: < 0.001 µM
TGI [7]: < 0.001 µM
GI50 [8]: < 0.001 µM
GI50 [9]: < 0.001 µM
TGI [9]: 0.0334 µM
GI50 [10]: < 0.001 µM
TGI [10]: 1.05 µM

NC(N)=NCCCCCNc1noc(Cc2c[nH]c3cc(Br)ccc23)n1
GI50 [1]: > 100 µM
TGI [1]: > 100 µM
GI50 [2]: 39.9 µM
TGI [2]: > 100 µM
GI50 [3]: 9.78 µM
TGI [3]: 37 µM
GI50 [4]: 7.21 µM
TGI [4]: 28.8 µM
GI50 [5]: 16.3 µM
TGI [5]: 45 µM
GI50 [6]: 8.05 µM
TGI [6]: 30.2 µM
GI50 [7]: 22.8 µM
TGI [7]: 57.8 µM
GI50 [8]: 24 µM
TGI [8]: > 100 µM
GI50 [9]: 3.87 µM
TGI [9]: 18.8 µM
GI50 [10]: 20 µM
TGI [10]: > 100 µM

C[C@]12CC[C@@H]3c4ccc(O)cc4CC[C@H]3[C@@H]1CC[C@@H]2NS(=O)(=O)c1cccc(F)c1
GI50 [1]: 2.07 µM
TGI [1]: 6.68 µM
GI50 [2]: 2.71 µM
TGI [2]: 8.66 µM
GI50 [3]: 2.63 µM
TGI [3]: 7.33 µM
GI50 [5]: 3.49 µM
TGI [5]: 11 µM
GI50 [6]: 3.64 µM
TGI [6]: 13.6 µM
GI50 [7]: 2.8 µM
TGI [7]: 8.14 µM
GI50 [8]: 6.12 µM
TGI [8]: 18.2 µM
GI50 [9]: 2.35 µM
TGI [9]: 6.39 µM
GI50 [10]: 4.36 µM
TGI [10]: 16.8 µM
